Test results as given in patent US20020086065A1, “Methods and compositions for the benefit of those suffering from polycystic ovary syndrome with chromium complexes” (priority 2000, published 2002).

What was measured:
women with PCOS = conditions: 14 women with PCOS, metformin 850 mg three times a day for 12 weeks; cited from earlier work
[1] = rats, oral CrCl3 with the NSAID; cited from earlier work
[2] = system: subject presenting with PCOS; test: Example: oral chromium picolinate/picolinic acid tablet in a subject presenting with PCOS; assay type: in vivo; conditions: daily dose of 1,000 μg of chromium
Procedure: A subject presenting with PCOS is identified. The subject is orally administered a tablet comprising chromium picolinate and picolinic acid at a ratio of 1:10 w/w at a daily dose of 1,000 μg of chromium. The tablet additionally comprises guaifenesin and ibuprofen in a pharmaceutically effective dose. Over the course of several weeks, a decrease in body mass and improved lipid profile is observed. The chromic picolinate sensitizes the subject's insulin and the symptoms of PCOS are reduced.

In the case of `CN(C)C(=N)N=C(N)N` [metformin], the 17-hydroxy progesterone level (women with PCOS) is given as “unchanged”, the “Body mass index (BMI)” value (women with PCOS) is given as “unchanged” and the DHEAS level (women with PCOS) is given as “unchanged”. The Free testosterone level (women with PCOS) was “unchanged”, the androstenedione level (women with PCOS) was “unchanged” and the estradiol level (women with PCOS) was “unchanged”. For the same compound, the “follicle-stimulating hormone (FSH) level” value (women with PCOS) was “unchanged”, the insulin secretion (women with PCOS) was “not improved” and the progesterone level (women with PCOS) was “unchanged”. For the same compound, the “stimulated LH level” value (women with PCOS) was “unchanged”.
In the case of `CC(=O)Oc1ccccc1C(=O)O` [aspirin], the “Chromium absorption following oral administration of CrCl3” value [1] is listed as “facilitated”.
For chromic picolinate, the “effect on the subject's insulin” value [2] was “sensitizes”.
